# Results published in patent publication US10463671B2, “Combination therapy for treating cancer” (Epizyme, Inc., priority 2013, dated 2019).
# Experiments:
# [1] = test system: glucocorticoid signaling genes in WSU-DLCL2 cells; test: RT2 Glucocorticoid Signaling PCR array; assay type: cell-based; details: WSU cell line, 4 days
# Description: (§1) Gene expression was normalized to array's B2M and fold change compared to DMSO was calculated using the ΔΔCt method.
# [2] = test system: glucocorticoid signaling genes in OCI-LY19 cells; test: RT2 Glucocorticoid Signaling PCR array; assay type: cell-based; details: compared to DMSO; OCI cell line; 4 days
# Description: as §1
smiles,measurement,setting,value
CCN(c1cc(-c2ccc(CN3CCOCC3)cc2)cc(C(=O)NCc2c(C)cc(C)[nH]c2=O)c1C)C1CCOCC1 [Compound 44],AK2 Ct Values,[1],21.365
same,ANXA4 Ct Values,[1],24.659
same,ARID5B Ct Values,[1],26.126
same,BCL6 Ct Values,[1],20.795
same,CEBPB Ct Values,[1],26.770
same,CREB3L4 Ct Values,[1],24.392
same,EHD3 Ct Values,[1],24.270
same,IL6R Ct Values,[1],33.814
same,MT2A Ct Values,[1],23.499
same,NFKBIA Ct Values,[1],23.807
same,PER2 Ct Values,[1],24.837
same,POU2F2 Ct Values,[1],22.678
same,RASA3 Ct Values,[1],23.208
same,RHOB Ct Values,[1],27.234
same,SLC22A5 Ct Values,[1],26.640
same,SNTA1 Ct Values,[1],24.181
same,SPSB1 Ct Values,[1],26.952
same,TNFAIP3 Ct Values,[1],26.903
same,TSC22D3 Ct Values,[1],25.390
same,ZFP36 Ct Values,[1],25.541
same,ZNF2B1 Ct Values,[1],23.913
same,RPLP0 Ct Values,[1]; housekeeping gene,15.681
same,HPRT1 ΔCT (B2M),"[1]; housekeeping gene, normalized to B2M",3.108
same,AMPD3 ΔCT (B2M),[1]; normalized to B2M,7.477
same,GHRHR ΔCT (B2M),[1]; normalized to B2M,20.272
same,GOT1 ΔCT (B2M),[1]; normalized to B2M,4.142
same,SLC10A6 ΔCT (B2M),[1]; normalized to B2M,15.999
same,SLC19A2 ΔCT (B2M),[1]; normalized to B2M,6.440
same,SLC22A5 ΔCT (B2M),[1]; normalized to B2M,6.955
same,ZNF2B1 ΔCT (B2M),[1]; normalized to B2M,4.228
same,B2M ΔCT (B2M),"[1]; normalizer gene, normalized to B2M",0.000
same,BCL6 ΔΔCT,[1]; vs DMSO,−0.394
same,CREB1 ΔΔCT,[1]; vs DMSO,0.008
same,CREB3L4 ΔΔCT,[1]; vs DMSO,−0.915
same,CREB3 ΔΔCT,[1]; vs DMSO,−0.085
same,DDIT4 ΔΔCT,[1]; vs DMSO,−0.060
same,GOT1 ΔΔCT,[1]; vs DMSO,0.708
same,HNRPLL ΔΔCT,[1]; vs DMSO,−0.037
same,IL1RN ΔΔCT,[1]; vs DMSO,−4.453
same,PDP1 ΔΔCT,[1]; vs DMSO,−0.380
same,PIK3R1 ΔΔCT,[1]; vs DMSO,0.363
same,POU2F2 ΔΔCT,[1]; vs DMSO,−0.680
same,STAT5A ΔΔCT,[1]; vs DMSO,−0.307
same,USP54 ΔΔCT,[1]; vs DMSO,0.023
same,VLDLR ΔΔCT,[1]; vs DMSO,3.859
same,"ΔΔCT, ADARB1",[2],−0.788
same,"ΔΔCT, ARID5B",[2],0.231
same,"ΔΔCT, PDCD7",[2],0.024
same,"ΔΔCT, SPHK1",[2],0.018
